This is an account of results in PMC7411735, “New Terpendole Congeners, Inhibitors of Sterol O-Acyltransferase, Produced by Volutella citrinella BF-0440” (Molecules, 2020).

Like-named read-outs stand apart in the source and are kept apart here.

A word on the IC50: it is the midpoint of a concentration-inhibition curve.

In experiment [1] the target is T1, human SOAT1 (Homo sapiens, UniProt P35610).
T1 construct: expressed in transfected cells; host or cells: CHO AC29 (SOAT-deficient) cells
T1 sequence (P35610 1-550): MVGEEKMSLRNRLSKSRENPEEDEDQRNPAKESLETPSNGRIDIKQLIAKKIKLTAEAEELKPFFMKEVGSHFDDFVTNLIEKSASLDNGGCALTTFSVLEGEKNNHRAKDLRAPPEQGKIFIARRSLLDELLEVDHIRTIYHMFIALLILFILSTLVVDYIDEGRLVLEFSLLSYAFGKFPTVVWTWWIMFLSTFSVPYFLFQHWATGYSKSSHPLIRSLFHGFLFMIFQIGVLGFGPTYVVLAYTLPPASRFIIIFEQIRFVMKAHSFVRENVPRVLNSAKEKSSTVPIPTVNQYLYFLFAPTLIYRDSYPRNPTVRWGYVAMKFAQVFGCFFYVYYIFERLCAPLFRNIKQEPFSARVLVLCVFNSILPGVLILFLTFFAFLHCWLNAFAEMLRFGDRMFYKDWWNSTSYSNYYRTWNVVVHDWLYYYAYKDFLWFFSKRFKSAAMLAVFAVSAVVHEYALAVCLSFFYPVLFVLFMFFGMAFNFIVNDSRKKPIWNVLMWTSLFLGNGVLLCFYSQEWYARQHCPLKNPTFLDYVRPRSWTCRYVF
The experiment is described as follows: SOAT1 activity in SOAT1-CHO cells ([14C]CE formation from [1-14C]oleic acid). The class given is cell-based. The settings on record: for IC50: n ≧ 3.
Method: (§1) CHO cells (AC29 cells, SOAT-deficient cells) expressing the SOAT1 or SOAT2 genes from human were cultured using a previously described method [17].
(§2) Assays for human SOAT1 and SOAT2 activities using SOAT1- and SOAT2-CHO cells were performed using our established method [11, 17]. […] At least 80% confluent cells were used for assays. […] After a 6-h incubation at 37 °C in 5% CO2, medium was removed, and the cells in each well were washed twice with PBS. Cells were lysed by adding 0.25 mL of 10 mM Tris-HCl (pH 7.5) containing 0.1% (w/v) sodium dodecyl sulfate, and [^14C]CE was analyzed using a FLA-7000 analyzer (Fuji Film). In this cell-based assay, [^14C]CE was produced by the reaction of SOAT1 or SOAT2. SOAT inhibitory activity (%) is defined as ([1-^14C]CE-drug/[^14C]CE-control) × 100.

The target of experiment [2] is T2, human SOAT2 (Homo sapiens, UniProt O75908).
T2 construct: expressed in transfected cells; host or cells: CHO AC29 (SOAT-deficient) cells
T2 sequence (O75908 1-522): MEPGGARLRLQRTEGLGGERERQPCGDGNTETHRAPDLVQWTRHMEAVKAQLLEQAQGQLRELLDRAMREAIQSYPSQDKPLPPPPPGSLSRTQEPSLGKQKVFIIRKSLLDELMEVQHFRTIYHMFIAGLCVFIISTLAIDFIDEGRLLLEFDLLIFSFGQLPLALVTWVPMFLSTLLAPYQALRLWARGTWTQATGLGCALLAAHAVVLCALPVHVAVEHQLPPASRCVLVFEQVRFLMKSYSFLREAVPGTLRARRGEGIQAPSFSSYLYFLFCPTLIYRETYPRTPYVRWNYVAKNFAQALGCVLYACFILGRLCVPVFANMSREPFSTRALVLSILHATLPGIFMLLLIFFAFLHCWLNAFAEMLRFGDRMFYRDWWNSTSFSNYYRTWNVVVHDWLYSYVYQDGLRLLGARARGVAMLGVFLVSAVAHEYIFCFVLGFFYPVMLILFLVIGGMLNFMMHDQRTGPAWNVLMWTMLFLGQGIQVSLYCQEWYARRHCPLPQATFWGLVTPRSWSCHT
Briefly: SOAT2 activity in SOAT2-CHO cells ([14C]CE formation from [1-14C]oleic acid). The class given is cell-based. The settings on record: for IC50: n ≧ 3.
Method: as §1, §2

In experiment [3] the test system is human SOAT2. The description is as above. The settings on record: classified by SI. The class given is cell-based.
Method: as §1, §2
The subject of experiment [4] is human SOAT2. Also noted: method as in PMID 32467602. The settings on record: classified by SI; cited from earlier work.
In experiment [5] the target is T2, human SOAT2. Also noted: method as in PMID 32467602. The following applies: SOAT2-CHO cells; cited from earlier work.
Experiment [6] relates to African green monkey SOAT1. Details: method as in PMID 16629409. The settings on record: African green monkey SOAT1-CHO cells; cited from earlier work.
Experiment [7] has as its system African green monkey SOAT2. Also noted: method as in PMID 16629409. The settings on record: cited from earlier work.
In experiment [8] the test system is SOAT2. Details: method as in PMID 17390588. The settings on record: cited from earlier work.
The mark [9] stands for this setting: IC50 SOAT1, human SOAT1-CHO cells.
[10] abbreviates: IC50 SOAT2, human SOAT2-CHO cells.
Where [11] appears, read: SAR comparison: 4 vs 6 (R5), 8 vs 11 (R6).

For the compound `CC(C)=CC1OC2C(OC3CCC4(C)C(C)(O)C(CC5(O)C(=O)Nc6cccc(CC7OC7(C)C)c65)CCC4(O)C34OC24)C(C)(C)O1` (stereo not shown) [Compound 1, Terpendole N], the IC50 in experiment [1] (read-out: IC50 SOAT1, human SOAT1-CHO cells) was more than 14 µM; in experiment [2] (read-out: IC50 SOAT2, human SOAT2-CHO cells), more than 14 µM.

For `CC(C)=C[C@H]1O[C@H]2[C@H]3O[C@@]34[C@H](CC[C@@]3(C)[C@@]4(O)CC[C@H]4Cc5c([nH]c6cccc(CC7OC7(C)C)c56)[C@@]43C)O[C@@H]2C(C)(C)O1` (stereo partly shown) [Compound 2, terpendole O], the values for the half-maximal inhibitory concentration (IC50) in experiment [1] (setting [9]) and in experiment [2] (setting [10]) were 2.8 µM and 2.4 µM, respectively. Moreover, in experiment [3], the Type of inhibitors entry is listed as “dual (Dual with -1.0 < SI < +1.0)”.

With `CC(C)=CCOC(C)(C)[C@H]1O[C@H]2CC[C@@]3(C)[C@]4(O[C@H]4C[C@H]4Cc5c([nH]c6ccccc56)[C@@]43C)[C@]23O[C@@H]3[C@@H]1O` [Compound 3, terpendole P], the 50% inhibitory concentration (IC50) in experiment [1] (setting [9]) was determined as 5.9 µM; in experiment [2] (setting [10]) it was 6.9 µM. In addition, the Type of inhibitors result in experiment [3] is “dual (Dual with -1.0 < SI < +1.0)”.

`CC(C)=C[C@H]1O[C@H]2[C@H]3O[C@@]34[C@H](CC[C@@]3(C)[C@@]4(O)CC[C@H]4C[C@@]5(O)c6c(CC7OC7(C)C)cccc6N[C@@]5(O)[C@@]43C)O[C@@H]2C(C)(C)O1` (stereo partly shown) [Compound 4, voluhemin A]: in experiment [4], the Type of inhibitors entry was “dual (Dual with -1.0 < SI < +1.0)”. In addition, in experiment [1] (setting [11]), the “enhancement of SOAT1 inhibitory activity relative to comparison compound” value is reported as “approximately 10 fold”. In addition, the “enhancement of SOAT2 inhibitory activity relative to comparison compound” value in experiment [2] (setting [11]) is “approximately 10 fold”.

`CC(C)=C[C@H]1O[C@H]2[C@H]3O[C@@]34[C@@H](O[C@@H]2C(C)(C)O1)[C@H](O)C[C@@]1(C)[C@@]4(O)CC[C@H]2C[C@@]3(O)c4c(CC5OC5(C)C)cccc4N[C@@]3(O)[C@@]21C` (stereo partly shown) [Compound 6, NK12838]: the half-inhibitory concentration (IC50) in experiment [5] is 3.5 µM. For the same compound, the Type of inhibitors result in experiment [4] is “dual (Dual with -1.0 < SI < +1.0)”.

For `CC(C)=C[C@H]1O[C@H]2[C@H]3O[C@@]34[C@H](CC[C@@]3(C)[C@@]4(O)CC[C@H]4Cc5c([nH]c6ccccc56)[C@@]43C)O[C@@H]2C(C)(C)O1` [Compound 7, terpendole C], the 50% inhibitory concentration (IC50) was 2 µM in experiment [1] (setting [9]) and 2.2 µM in experiment [2] (setting [10]). The Type of inhibitors entry in experiment [3] was “dual (Dual with -1.0 < SI < +1.0)”.

Take `CC(C)=CCOC(C)(C)[C@H]1O[C@H]2CC[C@@]3(C)[C@@H](CC[C@H]4Cc5c([nH]c6ccccc56)[C@@]43C)[C@]23O[C@@H]3[C@@H]1O` [Compound 8, terpendole D]: the results for the IC50 in experiment [1] (setting [9]) and in experiment [2] (setting [10]) were 0.8 µM and 2.1 µM, respectively. In addition, the Type of inhibitors entry in experiment [3] is recorded as “dual (Dual with -1.0 < SI < +1.0)”.

As to `CC(C)=CCc1cccc2[nH]c3c(c12)C[C@@H]1CC[C@@]2(O)[C@@]45O[C@@H]4[C@@H]4O[C@H](C=C(C)C)OC(C)(C)[C@H]4O[C@H]5CC[C@]2(C)[C@@]31C` [Compound 9, terpendole L], the figures for the half-inhibitory concentration (IC50) in experiment [1] (setting [9]) and in experiment [2] (setting [10]) were 6.8 µM and 1.8 µM, respectively. Also, in experiment [3], the Type of inhibitors result is “dual (Dual with -1.0 < SI < +1.0)”.

For the compound `CC(C)=CCc1cccc2[nH]c3c(c12)C[C@@H]1CC[C@@]2(O)[C@@]45O[C@@H]4[C@H](O)[C@@H](C(C)(C)O)O[C@H]5CC[C@]2(C)[C@@]31C` [Compound 10, tolypocladin A], the concentration for half-maximal inhibition (IC50) is more than 18 µM in experiment [1] (human SOAT1-CHO cells, read-out: IC50 SOAT1) and more than 18 µM in experiment [2] (human SOAT2-CHO cells, read-out: IC50 SOAT2).

As to `CC(C)=CCOC(C)(C)[C@H]1O[C@H]2CC[C@@]3(C)[C@@](O)(CC[C@H]4Cc5c([nH]c6ccccc56)[C@@]43C)[C@]23O[C@@H]3[C@@H]1O` [Compound 11, terpendole J], the IC50 in experiment [1] (setting [9]) stood at 18.6 µM; in experiment [2] (setting [10]), 10.7 µM. The Type of inhibitors result in experiment [3] is recorded as “dual (Dual with -1.0 < SI < +1.0)”.

As to `CC(C)=CCc1c([C@H](O)C2OC2(C)C)ccc2[nH]c3c(c12)C[C@@H]1CC[C@@]2(O)C(C)(C)C(=O)CC[C@]2(C)[C@@]31C` (stereo partly shown) [Compound 12, sespendole], the IC50 in experiment [6] is 12 µM; in experiment [7] (African green monkey SOAT2-CHO cells), 6.5 µM. Also, the Type of inhibitors entry in experiment [7] (classified by SI, African green monkey SOAT1 and SOAT2-CHO cells) was “dual (Dual with -1.0 < SI < +1.0)”.

For the compound pyripyropene A, in experiment [8], the SOAT isozyme selectivity entry is “highly selective SOAT2 inhibitor”.
